Measured values published in publication PMC8234864, “Early Effects of the Soluble Amyloid β25-35 Peptide in Rat Cortical Neurons: Modulation of Signal Transduction Mediated by Adenosine and Group I Metabotropic Glutamate Receptors” (International Journal of Molecular Sciences, 2021).
Where no end group is shown, it is not given here.

Tests used:
Assay type in all cases: cell-based, rat
PLCβ1 = PLCβ1 immunocytochemistry in permeabilized neurons; conditions: 25 µM, 24 h
Procedure: For PLCβ1 immunostaining, the protocol described above was followed with the introduction of modified steps. Before the nonspecific staining blockade with 3% normal goat serum, cells were pre-treated with Triton 0.25% in LB for 10 min to induce membrane permeabilization. Cells were incubated overnight in blocking buffer with mouse anti-PLCβ1 monoclonal antibody (1:500) from Millipore (Bedford, MA, USA). The following day, after three LB washes (10 min each), cortical neurons were exposed to Cy3-conjugated goat anti-mouse IgG (1:600). In all immunochemical procedures, internal controls were carried out where primary antibodies were not added to the blocking buffer.
(§1) To evaluate the degree of fluorescence intensity in cortical neurons, fluorescence was measured to estimate the protein expression in the different experimental conditions analyzed. Images (448.6 µm × 335.08 µm) obtained with a digital camera (Leica DFC350FX R2), attached to a Leica DMI6000B (Leica Microsystems, Wetzlar, Germany) fluorescent microscope, were used for quantification (20x HCX PL FLUOTAR 0.4 dry objective). […] Fluorescence intensity was estimated by averaging mean grey values. […] Data were normalized to the total number of cells in the analyzed fields. The mean fluorescence background, calculated in the unstained regions between neurons, was subtracted from the fluorescence intensity of each data point. […]

mGluR2,3 = experiment: Extracellular immunostaining of mGluR2,3 in non-permeabilized neurons; conditions: 25 µM, 24 h
Procedure: The quantitative analysis of the levels of Group I mGluR and mGluR2,3 at the plasma membrane was performed with extracellular targeted polyclonal antibodies (mGluR1, mGluR5 and mGluR2,3, Alomone Labs, Jerusalem, Israel), as previously described with minor modifications. Briefly, after 2 weeks in culture, the culture medium was removed and cells washed with Locke Buffer (LB, pH 7.4). Cells were then fixed with 4% paraformaldehyde for 10 min at room temperature and washed with three 10-min intervals with LB.
Nonspecific staining was suppressed by blocking with 3% normal goat serum in LB for 60 min. […]
as §1

[1] = test system: mGluR5 (GRM5) gene expression; experiment: mGluR5 gene expression by real-time PCR; conditions: 25 µM, 24 or 48 h, vs control neurons
Procedure: (§2) Total RNA was extracted using an ABI 6100 Nucleic Acid PrepStation according to the manufacturer’s protocol (Applied Biosystems Inc., Foster City, CA, USA). Total RNA from cells was isolated and stored at −80 °C. The quality of isolated RNA was estimated by the ratio A260/A280 and was in the range of 1.9–2.1. RNA integrity was evaluated by agarose gel electrophoresis according to MIQE guidelines using the “bleach gel” method. RNA concentrations were determined from the A260. One microgram of total RNA was reverse transcribed using Applied Biosystems High-Capacity cDNA Archive Kit.
(§3) To assess relative gene expression in neurons, quantitative real-time RT-PCR analysis was performed with an Applied Biosystems Prism 7500 Fast Sequence Detection System using TaqMan® universal PCR master mix according to the manufacturer’s specifications. […] Levels of RNA expression were determined using the 7500 Fast System SDS software version 1.3.1 (Applied Biosystems) according to the 2^−ΔΔCt method. […] The results from three independent repeat assays, performed in different plates each using different cDNA’s from the cultures analyzed, were averaged to produce a single mean quantity value for each mRNA.

[2] = test system: A2AR (ADORA2A) gene expression; experiment: A2AR gene expression by real-time PCR; conditions: 25 µM, 24 or 48 h
Procedure: as §2, §3

GSNKGAIIGLM [Aβ25-35] was tested. Which “total PLCβ1 protein decrease over control value” (PLCβ1) did it give?
Its value is 40%.

And the “mGluR2,3 density at the membrane surface of cell bodies” value (mGluR2,3)?
Its value is “decrease”.

What about the mGluR5 gene expression [1] of the same sequence?
The mGluR5 gene expression was “did not present any significant variation”.

What about the A2AR gene expression [2] of the same sequence?
Its A2AR gene expression is “significantly increased”.
